{
  "source": "patent US12059393B2",
  "about": "“Compositions for topical treatment of radiation dermatitis” (Akos Biosciences, Inc, priority 2022, dated 2024)",
  "key": {"[1]": {"test_system": "3D in vitro skin model containing epidermal keratinocytes and dermal fibroblasts", "experiment": "Gene expression changes (178 genes) in 3D in vitro skin model", "assay_type": "cell-based", "conditions": "for Regulated genes (function): UV exposed tissues, baseline Group K", "experimental": "A 3D in vitro skin model containing epidermal keratinocytes and dermal fibroblasts was used. Some tissues were irradiated with 200 mJ UVB/cm^2. Test materials were applied topically for 24 hours (after UVB exposure) and an MTT assay was used to check the viability of cells. The following treatment groups were used: • olive oil (no CBD); • CBD in olive oil in concentrations of 30, 60, 120, and 250 mg/mL; • No treatment; and • Triton-X® as positive control.\nNext, changes in gene expression for 178 genes were measured in tissues. Statistical significance was determined using unpaired t-test, P<0.05, N=4."}, "[2]": {"test_system": "acute radiation-induced dermatitis", "experiment": "Skin redness scoring in mouse radiation dermatitis model", "assay_type": "in vivo, Balb/c mice", "design": "key to Redness score (mean): visual redness score, scale 0 to 3 in 0.5 increments", "conditions": "for Redness score % Change CBD vs. Group 3: vs olive oil only; for Redness score % Change CBD vs. Group 2: vs radiation only", "experimental": "A study was performed on mice to determine the efficacy of topically-dosed CBD in an olive oil vehicle for the treatment of acute radiation-induced dermatitis. Three different CBD dosages were used— 30 mg/mL (3 wt %), 120 mg/mL (12 wt %), and 250 mg/mL (25 wt %).\n144 female Balb/c mice with an average starting body weight (±SEM) of 17.96±0.12 grams were randomized into six (6) groups of 24 animals each, as follows:\nThe control group (Group 1) was not irradiated. The animals in Groups 2-6 were anesthetized via a single intraperitoneal injection of xylazine and ketamine prior to being administered a single dose of 30 Grays (Gy) of radiation directed at a 2 cm×4 cm patch of shaved dorsal skin on Day 0. Radiation was generated by a 160 kVp (15-ma) X-ray source at a focal distance of 10 cm, hardened with a 0.35 mm Cu filtration system at a rate of approximately 3.2 Gy/minute.\nDosing for animals in Groups 3-6 began on Day 0 immediately after radiation. Treatments were administered topically (0.1 mL per animal) daily from Days 0-28.\nStarting on Day 8 and continuing every other day thereafter (Days 8-28), each animal was evaluated for skin redness and dermatitis, and photographed for subsequent blinded scoring of dermatitis at the completion of the study. Body weight was taken daily.\nSkin redness was scored visually by comparison to a photographic scale, and reported on a scale of 0 to 3 in 0.5 unit increments. The scale is described in the table below:\nData were evaluated using one-way ANOVA with Dunnett's multiple comparisons test to compare all groups to the vehicle control group using GraphPad Prism 8.4.3 (La Jolla, CA Duration of dermatitis data was evaluated using the Chi-square test to compare all groups to the vehicle-control group and radiation only group using SigmaPlot 11.0 (Systat Software, Inc.). Statistical significance was achieved when p<0.05."}},
  "data": [
    {"smiles": "C=C(C)[C@@H]1CCC(C)=C[C@H]1c1c(O)cc(CCCCC)cc1O", "note": "[CBD, 2-[(1R,6R)-6-Isopropenyl-3-methylcyclohex-2-en-1-yl]-5-pentylbenzene-1,3-diol]", "values": [
      {"measurement": "Regulated genes (function)", "setting": "[1]; 30 mg/mL CBD in olive oil (Group G)", "value": "associated with cell renewal, tissue remodeling, anti-apoptotic pathway, and extracellular matrix integrity"},
      {"measurement": "Regulated genes (function)", "setting": "[1]; 120 mg/mL CBD in olive oil (Group I)", "value": "associated with antioxidant/stress response"},
      {"measurement": "Genes with FC of 2 or greater", "setting": "[1]; CBD in olive oil 30-250 mg/mL (Groups B-E), healthy tissues, baseline Group A (olive oil)", "value": "four"},
      {"measurement": "Redness score (mean)", "setting": "[2]; CBD-treated groups condensed (30, 120, 250 mg/mL), Day 8", "value": 0.81},
      {"measurement": "Redness score (mean)", "setting": "[2]; CBD-treated groups condensed, Day 10", "value": 1.06},
      {"measurement": "Redness score (mean)", "setting": "[2]; CBD-treated groups condensed, Day 12", "value": 1.07},
      {"measurement": "Redness score (mean)", "setting": "[2]; CBD-treated groups condensed, Day 14", "value": 1.16},
      {"measurement": "Redness score (mean)", "setting": "[2]; CBD-treated groups condensed, Day 16", "value": 1.43},
      {"measurement": "Redness score (mean)", "setting": "[2]; CBD-treated groups condensed, Day 18", "value": 1.40},
      {"measurement": "Redness score (mean)", "setting": "[2]; CBD-treated groups condensed, Day 20", "value": 1.43},
      {"measurement": "Redness score (mean)", "setting": "[2]; CBD-treated groups condensed, Day 22", "value": 1.50},
      {"measurement": "Redness score (mean)", "setting": "[2]; CBD-treated groups condensed, Day 24", "value": 1.18},
      {"measurement": "Redness score (mean)", "setting": "[2]; CBD-treated groups condensed, Day 26", "value": 1.04},
      {"measurement": "Redness score (mean)", "setting": "[2]; CBD-treated groups condensed, Day 28", "value": 0.89},
      {"measurement": "Mean redness scores compared against Group 2 (radiation only)", "setting": "[2]; CBD-treated groups considered together, p<0.05", "value": "statistically significant reduction"},
      {"measurement": "Redness scores compared to Group 2", "setting": "[2]; CBD-treated groups, after Day 14", "value": "consistently lower"},
      {"measurement": "Redness scores compared to Group 3 (olive oil only)", "setting": "[2]; CBD-treated groups, all time points", "value": "consistently lower"},
      {"measurement": "Redness score % Change CBD vs. Group 3", "setting": "[2]; Day 8", "value": "−16.13", "unit": "%"},
      {"measurement": "Redness score % Change CBD vs. Group 3", "setting": "[2]; Day 10", "value": "−30.61", "unit": "%"},
      {"measurement": "Redness score % Change CBD vs. Group 3", "setting": "[2]; Day 12", "value": "−32.68", "unit": "%"},
      {"measurement": "Redness score % Change CBD vs. Group 3", "setting": "[2]; Day 14", "value": "−27.45", "unit": "%"},
      {"measurement": "Redness score % Change CBD vs. Group 3", "setting": "[2]; Day 16", "value": "−29.93", "unit": "%"},
      {"measurement": "Redness score % Change CBD vs. Group 3", "setting": "[2]; Day 18", "value": "−21.71", "unit": "%"},
      {"measurement": "Redness score % Change CBD vs. Group 3", "setting": "[2]; Day 20", "value": "−23.70", "unit": "%"},
      {"measurement": "Redness score % Change CBD vs. Group 3", "setting": "[2]; Day 22", "value": "−32.08", "unit": "%"},
      {"measurement": "Redness score % Change CBD vs. Group 3", "setting": "[2]; Day 24", "value": "−25.44", "unit": "%"},
      {"measurement": "Redness score % Change CBD vs. Group 3", "setting": "[2]; Day 26", "value": "−30.56", "unit": "%"},
      {"measurement": "Redness score % Change CBD vs. Group 3", "setting": "[2]; Day 28", "value": "−42.34", "unit": "%"},
      {"measurement": "Redness score % Change CBD vs. Group 2", "setting": "[2]; Day 8", "value": 87.50, "unit": "%"},
      {"measurement": "Redness score % Change CBD vs. Group 2", "setting": "[2]; Day 12", "value": 3.83, "unit": "%"},
      {"measurement": "Redness score % Change CBD vs. Group 2", "setting": "[2]; Day 14", "value": "−3.65", "unit": "%"},
      {"measurement": "Redness score % Change CBD vs. Group 2", "setting": "[2]; Day 16", "value": "−21.32", "unit": "%"},
      {"measurement": "Redness score % Change CBD vs. Group 2", "setting": "[2]; Day 18", "value": "−24.73", "unit": "%"},
      {"measurement": "Redness score % Change CBD vs. Group 2", "setting": "[2]; Day 20", "value": "−25.07", "unit": "%"},
      {"measurement": "Redness score % Change CBD vs. Group 2", "setting": "[2]; Day 22", "value": "−34.00", "unit": "%"},
      {"measurement": "Redness score % Change CBD vs. Group 2", "setting": "[2]; Day 24", "value": "−42.28", "unit": "%"},
      {"measurement": "Redness score % Change CBD vs. Group 2", "setting": "[2]; Day 26", "value": "−45.44", "unit": "%"},
      {"measurement": "Redness score % Change CBD vs. Group 2", "setting": "[2]; Day 28", "value": "−45.68", "unit": "%"}
    ]}
  ]
}
